Assay [1] has as its system cGAS activity in Reporter THP1 cell line. Put plainly: Cellular assay to measure cGAS activity: ISRE-Gaussia luciferase reporter THP1 cells transfected with ISD. It is filed as cell-based. As to conditions: Homo sapiens, THP-1, untitled table after Table 4 (continuation). In outline: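 THP1 ISRE-Gaussia luciferase reporter cells (0.3×10^6/well) pre-incubated 5 min with compound serial dilutions, then lipofectamine-transfected with 2 μg/mL ISD (45 bp DNA) or mock. Secreted luciferase read 16 h later with 1 μM coelenterazine at pH 6.5; IC50 from fold increase over mock. Specificity counter-screen used 2 μg/mL poly(I:C) or Sendai virus 50 Unit/mL.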
(In general: A reporter such as luciferase makes a cellular process visible.)

Assay [2] deals with T1, recombinant human cGAS (aa147-522) (Homo sapiens, UniProt Q8N884).
T1 construct: recombinant human cGAS (aa147-522); His6-SUMO (cleaved yes); made in house; host or cells: E. coli BL21/pLys
T1 sequence (Q8N884 147-522): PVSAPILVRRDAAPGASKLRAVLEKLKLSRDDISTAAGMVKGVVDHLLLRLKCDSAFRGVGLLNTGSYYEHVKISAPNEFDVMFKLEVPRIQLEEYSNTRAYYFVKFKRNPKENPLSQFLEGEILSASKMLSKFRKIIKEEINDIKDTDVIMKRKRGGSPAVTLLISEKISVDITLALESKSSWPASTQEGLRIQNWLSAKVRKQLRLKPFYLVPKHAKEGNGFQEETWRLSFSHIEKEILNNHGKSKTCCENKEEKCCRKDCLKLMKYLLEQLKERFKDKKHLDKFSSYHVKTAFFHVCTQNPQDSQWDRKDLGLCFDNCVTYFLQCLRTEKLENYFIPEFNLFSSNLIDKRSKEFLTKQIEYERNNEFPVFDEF
Description: In vitro inhibition assay of cGAS activity (ATP consumption, KinaseGlo Max). Type of assay: biochemical. As to conditions: Table 3, read-out: cGAS Inhibition Results IC50. In a few lines: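 IC50 came from plotting % ATP consumption against log compound concentration, with leftover ATP detected by KinaseGlo Max chemiluminescence. Reactions ran 20 min at 37 °C with 1.5 μg/mL human cGAS (aa147-522), 6.6 μM ATP, 0.1 mM GTP and 0.01 mg/mL DNA at pH 7.5.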
(Kinase-Glo reads ATP consumption through a luciferase reaction.)

Molecules are shown by their SMILES.

A word on the IC50: it is the concentration needed to halve the response being measured. Consider `O=C(O)CCOCC1CCCCCN1c1cc(-n2ccnc2)c2ccc(Cl)c(Cl)c2n1` (stereo not shown) [I-865], for which the IC50 in assay [1] and in assay [2] was under 2000 nM each time.
On to `O=C(O)CCOCC1CCCCN(c2cc(-n3ccnc3)c3ccc(Cl)c(Cl)c3n2)C1` (stereo not shown) [I-866], for which the IC50 was 2000 to 10000 nM in assay [1] and under 2000 nM in assay [2].
For `O=C(O)CCOCC1CN(c2cc(-n3ccnc3)c3ccc(Cl)c(Cl)c3n2)CCCO1` (stereo not shown) [I-867] the same measures were under 2000 nM and under 2000 nM.
For `O=C(O)CCOCC1COCCN(c2cc(-n3ccnc3)c3ccc(Cl)c(Cl)c3n2)C1` (stereo not shown) [I-868] the same measures were 2000 to 10000 nM and under 2000 nM.
With `COC(=O)[C@@H]1[C@@H](O)CCN1c1cc(-n2ccnc2)c2ccc(Cl)c(Br)c2n1` [I-872], the IC50 was under 2000 nM in assay [1] and 2000 to 30000 nM in assay [2].
The matching figures for `COc1cc(Cl)c2nc(N3CCC[C@H]3COCCC(=O)O)cc(-n3ccnc3)c2c1` [I-875]: under 2000 nM and under 2000 nM.
As for `O=C(O)CCOC[C@@H]1CCCN1c1cc(-n2ccnc2)c2cc(Cl)c(Cl)c(Cl)c2n1` [I-876], the IC50 in assay [1] and in assay [2] was under 2000 nM in each case.
Turning to `Cc1ccc(-c2cc(-n3ccnc3)c3ccc(Cl)c(Cl)c3n2)cc1COCCC(=O)O` [I-877], the IC50 in assay [1] and in assay [2] was under 2000 nM throughout.
Turning to `O=C(O)CCOCc1ccc(Cl)c(-c2cc(-n3ccnc3)c3ccc(Cl)c(Cl)c3n2)c1` [I-878], the IC50 in assay [1] and in assay [2] was under 2000 nM in each case.
As for `O=C(O)CCOCc1cc(Cl)cc(-c2cc(-n3ccnc3)c3ccc(Cl)c(Cl)c3n2)c1` [I-879], the IC50 in assay [1] and in assay [2] was under 2000 nM in each case.
`CC(OCCC(=O)O)c1cccc(-c2cc(-n3ccnc3)c3ccc(Cl)c(Cl)c3n2)c1` (stereo not shown) [I-880]: the IC50 was 2000 to 10000 nM in assay [1] and under 2000 nM in assay [2].
For `O=C(O)c1noc(CCNc2cc(-n3ccnc3)c3ccc(Cl)c(Cl)c3n2)n1` [I-882] the same measures were over 10000 nM and under 2000 nM.
The matching figures for `O=C(O)CCc1cccc(Nc2cc(-n3ccnc3)c3ccc(Cl)c(Cl)c3n2)c1` [I-883]: 2000 to 10000 nM and under 2000 nM.
Consider `COc1ccc(-c2cc(-n3ccnc3)c3ccc(Cl)c(Cl)c3n2)cc1COCCC(=O)O` [I-884], for which the IC50 in assay [1] and in assay [2] was under 2000 nM in each case.
In the case of `O=C(O)c1ccccc1OCCNc1cc(-n2ccnc2)c2ccc(Cl)c(Cl)c2n1` [I-886], the IC50 in assay [1] and in assay [2] was under 2000 nM in each case.
Consider `O=C(O)c1cccc(CNc2cc(-n3ccnc3)c3ccc(Cl)c(Cl)c3n2)c1` [I-887], for which the figures for the IC50 in assay [1] and in assay [2] were 2000 to 10000 nM and under 2000 nM, respectively.
As for `O=C(O)Cc1ccccc1CNc1cc(-n2ccnc2)c2ccc(Cl)c(Cl)c2n1` [I-888], the IC50 is 2000 to 10000 nM in assay [1] and under 2000 nM in assay [2].
The matching figures for `O=C(O)c1cnn(CCNc2cc(-n3ccnc3)c3ccc(Cl)c(Cl)c3n2)c1` [I-889]: over 10000 nM and under 2000 nM.
For `COC(=O)Cc1cc(F)cc(CNc2cc(-n3ccnc3)c3ccc(Cl)c(Cl)c3n2)c1` [I-890, methyl 2-(3-(((7,8-dichloro-4-(1H-imidazol-1-yl)quinolin-2-yl)amino)methyl)-5-fluorophenyl)acetate] the same measures were under 2000 nM and 2000 to 30000 nM.
The matching figures for `O=C(O)Cc1cc(F)cc(CNc2cc(-n3ccnc3)c3ccc(Cl)c(Cl)c3n2)c1` [I-891, 2-(3-(((7,8-dichloro-4-(1H-imidazol-1-yl)quinolin-2-yl)amino)methyl)-5-fluorophenyl)acetic acid]: under 2000 nM and under 2000 nM.

The values are drawn from patent US11873291B2, “Quinoline cGAS antagonist compounds” (ImmuneSensor Therapeutics, Inc., priority 2020, dated 2024).
